{"source": "patent US20200239587A1", "about": "“SENSITIZATION OF TUMORS TO THERAPIES THROUGH ENDOGLIN ANTAGONISM” (Cedars-Sinai Medical Center, priority 2016, published 2020)", "key": {"[1]": {"system": "SFRP1 expression in human NAF and CAF", "test": "SFRP1 mRNA expression in NAF and CAF treated with TRC105", "format": "cell-based", "conditions": "vs IgG", "source_text": "See also FIG. 15. […] Immunohistochemical localization of CD105 and SFRP1 in benign or PCa tissues are found in blood vessels (v), epithelia (e), and stroma (s), n=4. Scale bar represents 100 μm. FIG. 12E) Epithelial proliferation of human CW22Rv1, in 3D co-cultures with mouse prostatic fibroblasts, were co-stained for EpCam and Ki67 for FACS analysis. […] See also FIG. 16. […] Error bars are mean+/−SD and **p<0.01, ****p<0.0001, compared to control unless otherwise indicated.\nCW22Rv1, C42B, and PC3 cells from ATCC were expanded as directed. Prostatectomy specimens from Cedars-Sinai Medical Center or the Greater Los Angeles Veterans Affairs were cultured to generate NAF and CAF cells using the same method, as C57BL/6 mouse wild-type prostatic fibroblasts were grown as previously reported (Franco et al., 2011, Cancer research 71, 1272-1281; Kiskowski et al., 2011, Cancer research 68, 4709-4718). TRC105 and M1043 were provided by TRACON Pharmaceuticals, Inc. (San Diego, Calif.). […]\nTotal RNA was extracted using the RNeasy kit (Qiagen). […] Quantitative RT-PCR was performed with 5 replicates using the Step One Real-Time PCR system (Applied Biosystems). […] For RNA-sequencing, Ion Proton AmpliSeq Transcriptome RNA Sequencing was performed achieving an average of 3M reads. We mapped an average of 88% of the reads to the human genome with Torrent Suite version 4.4.2."}, "[2]": {"system": "SIRT1 expression in 22Rv1", "test": "Radiation induced SIRT1 mRNA expression", "format": "cell-based, human", "conditions": "4 Gy", "protocol": "(§1) FIG. 21A) C4-2B were irradiated (0, 2, 4, or 6 Gy) and SIRT1 expression measured 72 hours post irradiation. FIG. 21B) C4-2B cells were irradiated (4 Gy) and SIRT1 expression measured 0, 0.5, 4, 8, 24, 48, and 72 hours post-radiation. FIG. 21C) 22Rv1 were pre-treated with 1 μg/ml IgG or TRC105 24 hours prior to irradiation with 4 Gy and compared for relative SIRT1 mRNA expression 72 hours after to irradiation. SIRT1 mRNA was normalized to GAPDH and to 0 Gy control.\n(§2) Total RNA was extracted using the RNeasy kit (Qiagen). 1 μg RNA was used for cDNA synthesis using iSCRIPT cDNA synthesis kit (1708891, Bio-Rad). Quantitative RT-PCR was performed with 5 replicates using the Step One Real-Time PCR system (Applied Biosystems). Gene mRNA expression was normalized to GAPDH. Primer sequences can be found in the Table 1. For RNA-sequencing, Ion Proton AmpliSeq Transcriptome RNA Sequencing was performed achieving an average of 3M reads. We mapped an average of 88% of the reads to the human genome with Torrent Suite version 4.4.2."}, "[3]": {"system": "SIRT1 expression in C4-2B", "test": "Radiation induced SIRT1 mRNA expression", "format": "cell-based, human", "conditions": "irradiated", "protocol": "as §1, §2"}, "mtDNA in 22Rv1 cells": {"system": "mtDNA in 22Rv1 cells", "test": "Mitochondrial DNA quantitation", "format": "cell-based, human", "conditions": "radiation in the presence of TRC105; p<0.0001", "protocol": "FIGS. 24A-24D depict that PGC1α and mitochondrial biogenesis are regulated by BMP/CD105. 22Rv1 cells were incubated with IgG or TRC105 with or without 4 Gy irradiation. All measurements were made 72 hours post radiation. FIG. 24A) Western blot for whole cell lysate, nuclear and cytoplasmic fractions were independently analyzed for PGC1α expression. Loading controls included β-actin (whole cell), lamin B (nuclear marker), and Rho A (cytoplasm marker). FIG. 24B) Immunofluorescent localization of PGC1α was visualized with DAPI nuclear counterstain. FIG. 24C) mRNA expression of PGC1α target genes, NRF1, MTFA, and CPT1C was measured. mRNA expression was normalized to GAPDH and untreated IgG 0 Gy. FIG. 24D) Mitochondrial DNA (mtDNA) was measured from total DNA extracts and normalized to nuclear DNA and compared to untreated IgG 0 Gy. Data are reported as means+/−S.D. of 3 independent experiments. (***p<0.001, ****p<0.0001)."}, "[4]": {"system": "MTCO1 of complex-IV and NDUFB8 of complex-I in 22Rv1", "test": "Western blot of mitochondrial electron transport chain proteins", "format": "cell-based, human", "conditions": "4Gy+TRC105 vs radiation alone, 72 hours", "protocol": "Lysate was collected 72 hours post irradiation for Western blot. FIG. 25A) Blots were probed for a cocktail of mitochondrial complex proteins. Protein levels of MTCO1 of complex-IV and NDUFB8 of complex-I were normalized to ponceau. […] Within each group, the first/left column depicts 0Gy+IgG, the second column depicts 0Gy+TRC105, the third column depicts 4Gy+IgG and the last/right column depicts 4Gy+TRC105. (**p<0.01, ***p<0.001)"}, "PC3 cells": {"system": "PC3 cells", "test": "Cell death assay with docetaxel and TRC105", "format": "cell-based, human", "conditions": "different concentrations of docetaxel and TRC105", "protocol": "The PC3 cells used in the cell death assay were treated with different concentrations of docetaxel in the presence of different concentrations of TRC105."}, "[5]": {"system": "tissue recombination orthotopic xenografts of primary human CAF and Rv1", "test": "Tissue recombination orthotopic xenografts of primary human CAF and Rv1", "from_the_text": "FIG. 13A) Mice were orthotopically grafted with tissue recombinants of CW22Rv1 and CAF. […] FIG. 13B) H&E staining was followed by immune-localization for phosphorylated-histoneH3 (PH-H3), TUNEL, and chromogranin A (ChromA). Scale bar represents 32 μm. The mitotic (PH-H3) and cell death (TUNEL) indexes were plotted. n>5, error bars are mean+/−SD and *p<0.05, **p<0.01, ***p<0.001, compared to control unless otherwise indicated.\nMale beige/SCID mice (Envigo), 6-8 or 10-12 weeks old, were used for subrenal capsule or prostatic orthotopic grafting, respectively, as previously described (Banerjee et al., 2014, Oncogene 33, 4924-4931; Hayward et al., 2001, Cancer Res 61, 8135-8142). In accordance with institutional animal care and use committee approval, 2×10^5 CW22Rv1 cells and 6×10^5 stromal cells were suspended in 20 μL type I collagen to be grafted into the subrenal capsule of mice castrated after seven days and sacrificed 21 days after castration. […] Tumor volume was calculated using the modified ellipsoid formula volume3=π/6×(width)2×length.\nParaffin embedded tissues were sectioned (5 μm thick) were subjected to hematoxylin and eosin (H&E) staining and immunohistochemistry as previously reported (Placencio et al., 2008, Cancer research 68, 4709-4718). […] Anti-phosphorylated histone H3 (06-570, Millipore), anti-CD105 (NCL-CD105, Leica Microsystems), anti-Ki67 (ab16667, Abcam), and anti-chromogranin A (sc-13090, Santa Cruz Biotechnology), anti-SFRP1 (601-401-475S, Rockland Immunochemicals), and anti-survivin (2808, Cell Signaling) antibodies were incubated at 4° C. overnight. Secondary antibody development was performed with Dako Cytomation mouse or rabbit kits and visualized using 3,3′-diaminobenzidine tetrahydrochloride substrate. TUNEL staining was performed per manufacturer's protocol (S7100, Millipore). Slides were scanned with a Leica Biosystems Aperio AT. Up to five fields per tissue were quantitated with Fiji (ImageJ) using a custom written macro. Mitotic and death index were quantitated by taking the total number of positively-stained nuclei divided by the total number of nuclei."}}, "note": "“Also recorded” adds a separate entry of the source.", "data": [{"substance": "TRC105: partially humanized monoclonal antibody that blocks BMP signaling; human-specific CD105 (endoglin) neutralizing antibody from Tracon Pharmaceuticals", "values": [{"measurement": "SFRP1 expression in NAF", "setting": "[1]", "result": "no effect"}, {"measurement": "SFRP1 expression in CAF", "setting": "[1]; p<0.0001", "result": "significantly down regulated"}, {"measurement": "radiation induced SIRT1 expression", "setting": "[2]", "result": "abrogated radiation induced SIRT1 expression"}, {"measurement": "radiation induced SIRT1 expression", "setting": "[3]", "result": "abrogated radiation induced SIRT1 expression"}, {"measurement": "mtDNA", "setting": "mtDNA in 22Rv1 cells", "result": "dramatic down regulation of mtDNA"}, {"measurement": "mitochondrial electron transport chain proteins MTCO1 and NDUFB8", "setting": "[4]", "result": "down-regulation of CIV-MTCO1 and CI-NDUF88; also recorded: significantly lower"}, {"measurement": "sensitization to docetaxel, cell death", "setting": "PC3 cells", "result": "taxane sensitizer"}, {"measurement": "NED, chromogranin A staining", "setting": "[5]; TRC105 added to ATT", "result": "reduced"}, {"measurement": "proliferation or cell death", "setting": "[5]; TRC105 alone compared to control", "result": "little change in either proliferation or cell death"}, {"measurement": "tumor size", "setting": "[5]; TRC105 alone, p<0.05", "result": "smaller than vehicle"}, {"measurement": "tumor volume", "setting": "[5]; TRC105 in enzalutamide treated castrated mice vs vehicle or enzalutamide (p<0.01 and <0.05)", "result": "significant reduction in tumor volume"}, {"measurement": "tumor size", "setting": "[5]; TRC105 treatment in castrated mice", "result": "reduced tumor size"}, {"measurement": "proliferation (phosphorylated-histone H3)", "setting": "[5]; castration, enzalutamide and TRC105 vs control or castrated enzalutamide group (p<0.05 and <0.001)", "result": "substantially reduced proliferation"}, {"measurement": "TUNEL staining", "setting": "[5]; castration, enzalutamide and TRC105 vs control or enzalutamide (p<0.05)", "result": "increased TUNEL staining"}, {"measurement": "efficacy of combination of TRC105 with ADT", "setting": "[5]; prostate cancer models, in vivo", "result": "superior to either one alone"}]}]}
